Source: patent US11198711B2 (priority 2013, dated 2021)

How the values were obtained:
[1] = tested on: vertebrate calcium channels; details: cited from earlier work
[2] = tested on: invertebrate calcium channels; details: cited from earlier work
Spodoptera sp. = details: native PI1a, literature value; cited from earlier work
[3] = tested on: Mamestra brassicae larvae; experiment: Droplet-feeding (oral) assay with Mamestra brassicae larvae; format: in vivo
Protocol: Droplet-feeding assays were carried out to assess the oral activity of Hv1a/GNA, pro-Hv1a/GNA, PI1a, Ao1bProPI1a, PI1a/GNA, Ao1bPro-PI1a/GNA, or Hv1aPro-PI1a/GNA towards third to fifth instar larvae of M. brassicae. Larvae were starved for approximately 24 h before feeding in order to encourage droplet consumption. Larvae were fed with a 2 μl droplet containing 20 μg of the above fusion proteins, 30 μg of toxins or 30 μg of GNA, in 1×PBS solution containing 10% sucrose (w/w). Control larvae were fed on PBS/sucrose droplets containing no added protein. Treated larvae were placed on standard artificial diet after consumption of the droplet.

[4] = tested on: Mamestra brassicae larvae; experiment: Injection bioassay with Mamestra brassicae larvae; format: in vivo; details: injection at up to 40 μg/insect
Protocol: 3rd-5th instar Mamestra brassicae larvae (approximately 30-55 mg in weight) were used for injection bioassays. Larvae were injected with varying doses of Hv1a, pro-Hv1a, pro-Hv1a/GNA, PI1a, Ao1bProPI1a, PI1a/GNA, Ao1bPro-PI1a/GNA, or Hv1aPro-PI1a/GNA (n=20 per dose) in 5 μl of PBS (phosphate buffered saline; 0.15 M NaCl, 0.015 M sodium-phosphate buffer, pH 7.2). Larvae for controls were injected with 5 μl 1×PBS. Paralysis and mortality was recorded 12-96 h after injection.

ω-ACTX-Hv1a [Hv1a (literature)]
block of vertebrate calcium channels [1]: not vertebrate | block of invertebrate calcium channels [2]: block invertebrate

δ-amaurobitoxin-PI1a [Pl1a (literature)]
LD50 (Spodoptera sp.): 9.5 µg/g

snowdrop lectin (GNA)
reductions in survival ([3]; 30 μg control treatments, 3rd stadium): 0-20% | mortality after 5 days ([3]; single 2 μl droplet containing 20 μg, third instar): 20% | mortality [4]: do not result in mortality
